Assay results taken from the OPERA property sets (Mansouri et al. 2018).

Structure (SMILES)	logP
Nc1ccc(I)cc1C(=O)O	2.06
NS(=O)(=O)c1ccccc1Cl	0.74
CCOC(=O)CCCn1nnc2ccccc21	1.86
Oc1ccc(C(c2ccncc2)c2ccc(O)cc2)cc1	3.24
CS(=O)(=O)c1cnc2ccccc2n1	0.79
O=[N+]([O-])C=Cc1cc([N+](=O)[O-])ccc1Cl	2.23
COc1ccc(Cc2cnc(N)nc2N)cc1OC	0.97
Nc1ncc(Cc2cc(Cl)c(Cl)c(Cl)c2)c(N)n1	3.64
CN(/N=N/c1nc[nH]c1C(N)=O)C(C)(C)C	0.94
Cc1ccc(OC2OC(CO)C(O)C(O)C2O)cc1 (stereo not drawn)	-0.16
CN(C)CC(=O)NCc1ccccc1	1.11
O=C(c1ccncc1)c1ccc(Cl)cc1	2.61
Cc1ccc(NC(=O)CN2CCCCC2)cc1	2.96
CCOC(=O)C(=Cc1cccc(OC)c1)C(=O)OCC	3.18
CCOP(=S)(OCC)Oc1ccc(SC)c(Cl)c1	5.06
CCC(C)C(=O)NN (stereo not drawn)	-0.33
O=c1nc(-c2ccccc2)c2cc(Br)ccc2[nH]1	2.71
Nc1nc(N)nc(-c2cc(F)ccc2Cl)n1	1.38
NC(=O)c1cccc(OC(=O)CNC(=O)c2ccccc2)c1	1.2
C#CCOn1c(=O)[nH]c(C)c(Br)c1=O	-0.1
CC1=Nc2c(C)cccc2S(=O)(=O)N1	0.52
O=C1CCC(=O)N1c1ccc(F)cc1	0.29
ClC1=C(Cl)C(Cl)C(Cl)C(Cl)C1Cl (stereo not drawn)	4.31
CCOC(=O)C(C#N)=NNc1cc(Cl)cc(Cl)c1	3.82

Structure (SMILES)	logP
Clc1cc(Cl)c(N=C2NCCN2)cc1Cl	2.11
Cc1ccc(N2C(N)=NC(N)=NC2(C)C)cc1	0.85
O=C1C=C(Nc2ccccc2)C(=O)c2ccccc21	2.84
CCCNCC(=O)NC(=O)C=[N+]=[N-]	-0.24
CN(Cc1ccc(C#N)cc1)N=Nc1ccc(C(=O)O)cc1	3.6
CON(C)C(=O)Nc1ccc(OCc2ccccc2)cc1	3.11
O=C(CN1CCCCC1)Nc1ccc([N+](=O)[O-])cc1	2.72
CNC=CC(C)c1ccccn1 (stereo not drawn)	1.13
CCCCCCNP(=O)(OC)SC (stereo not drawn)	1.11
O=NN(CCCl)C(=O)NCCO	0.3
O=C(CNC(=O)c1ccccc1)Oc1cccc(C(F)(F)F)c1	3.3
Clc1ccc(C2NCCS2)cc1 (stereo not drawn)	2.1
CC1CN(N=O)CCN1N=O (stereo not drawn)	-0.28
C[N+](C)(C)Cc1ccncc1.[Br-]	-3.95
CC(N)Cc1ccc2c(c1)OCO2 (stereo not drawn)	1.64
CCCC(=O)N(C)SN(C)C(=O)ON=C(C)SC	2.2
O=NN1CCCCCCCC1	2.04
Cc1cnc2ccccn2c1=O	0.77
CS(=O)(=O)NN=Cc1ccccc1	1.2
CC1=NS(=O)(=O)c2ccc(Cl)cc2N1	1.21
C=CC(CC)OC(N)=O (stereo not drawn)	1.09
O=S(=O)(Nc1cccc(F)c1)C(F)(F)F	3.42
Cc1ccc(C(=O)c2ccncc2)cc1	2.51
CSC(C)=NOC(=O)N(C)SN(C)C(=O)C(C)C	2.2

Structure (SMILES)	logP
O=c1cn[nH]c2ccccc12	0.82
COc1cc(Cc2cnc(N)nc2N)cc(OC)c1CO	0.42
CCOCC(O)Cn1ccnc1[N+](=O)[O-] (stereo not drawn)	0.04
COC(=O)C(C#N)=NNc1ccc(C(F)(F)F)cc1[N+](=O)[O-]	3.44
COc1cc(OC)c(N=C2NCCN2)cc1Cl	1.38
CNC(=O)O/N=C/C(C)(C)S(C)(=O)=O	-0.57
COP(=O)(OC)Oc1ccccc1	1.22
N#CC(C#N)=C(c1ccccc1)c1ccccc1	3.55
CN(Cc1ccccc1)N=Nc1ccc(C#N)cc1	3.82
COc1ccc(C=C[N+](=O)[O-])cc1	2.2
CSc1nc2nc(SC)[nH]c(Cl)c-2n1	0.63
CN(C)C(=O)Nc1cccc(OCCc2ccccc2)c1	3.39
Clc1cccc(-c2ccccc2)c1Cl	5.02
CC12CCC(=O)C=C1CCC1C3CCC4(CCC(=O)O4)C3(C)CC3OC312 (stereo not drawn)	1.89
CCCNc1ccc(C(=O)OCCN(C)C)cc1	3.15
CN(CCO)N=Nc1ccccc1	1.71
CN(C)c1cccc(C(N)=O)c1	0.95
CON(C)C(=O)Nc1cccc(F)c1	1.68
O=C1C(O)=C(CC=C(Cl)Cl)C(=O)c2ccccc21	3.1
O=C1CN=C(c2c(F)cccc2F)c2ccc(Cl)cc2N1	2.88
O=[N+]([O-])c1nccn1CCS(=O)(=O)c1ccccc1	0.52
Cc1cc(C)c(NC2=NCCN2)c(Cl)c1	2.1
COCCn1ccnc1[N+](=O)[O-]	0.12
CCOc1ncnc(NS(=O)(=O)c2ccc(N)cc2)c1OC	1.18

Structure (SMILES)	logP
COCN1C(=O)CN=C(c2ccccc2)c2cc([N+](=O)[O-])ccc21	2.05
CON(C)C(=O)Nc1cccc(C(C)(C)C)c1	3.21
CCCCC1=Nc2ccc(Cl)cc2S(=O)(=O)N1	2.52
CNc1cc(Cc2cnc(N)nc2N)cc(N(C)C(C)=O)c1C	0.53
[Br-].c1ccc(C[n+]2cccc3ccccc32)cc1	-0.82
CCCCCCCCCCCCS(=O)(=O)[O-].[Na+]	0.96
CN1C(=N)SC(=Cc2ccc([N+](=O)[O-])o2)C1=O	1.44
CC(C)(C)CC(N)C(=O)O (stereo not drawn)	-1.42
COc1cc(Cc2cnc(N)nc2N)cc(OC)c1O	0.37
NNC(=O)c1ccc(O)cc1	-0.33
Cc1cc(-n2[nH]c(C)cc2=O)nc(C)n1	0.89
CC(C)Cc1nnc(N)o1	0.4
CN(C)c1ccc2c(c1)C(c1ccccc1)=NCC(=O)N2C	2.63
N=C(N)NC(=O)Nc1ccc(Cl)c(Cl)c1	2.39
CN(C)C(=O)Cc1cccs1	0.65
COc1ccccc1NCC#N	1.3
CSc1nncc(=O)n1N	0.38
NC(=O)c1cccs1	0.52
Cn1ncc2c([N+](=O)[O-])cc([N+](=O)[O-])cc21	1.63
CC(=O)Nc1cc(C(F)(F)F)cc(C(F)(F)F)c1Br	3.51
CCCC(C)C1(CC)C(=O)NC(=O)N(C)C1=O (stereo not drawn)	2.45
